Here are results for 30 molecules from US20240376084A1, “INHIBITORS OF ALPHA-HEMOLYSIN OF STAPHYLOCOCCUS AUREUS” (Helmholtz-Zentrum Fur Infektionsforschung GmbH, priority 2021, published 2024).

For assay [1], the target named is S. aureus Alpha hemolysin (Staphylococcus aureus, UniProt P09616). Briefly: cell-based. The settings on record: A549-LDH Assay activity.
Assay [2] concerns the target hemolysin alpha from Staphylococcus aureus (Staphylococcus aureus, UniProt P09616). Briefly: cell-based.

hemolysin alpha from Staphylococcus aureus, sequence (P09616 27-319 limits assumed): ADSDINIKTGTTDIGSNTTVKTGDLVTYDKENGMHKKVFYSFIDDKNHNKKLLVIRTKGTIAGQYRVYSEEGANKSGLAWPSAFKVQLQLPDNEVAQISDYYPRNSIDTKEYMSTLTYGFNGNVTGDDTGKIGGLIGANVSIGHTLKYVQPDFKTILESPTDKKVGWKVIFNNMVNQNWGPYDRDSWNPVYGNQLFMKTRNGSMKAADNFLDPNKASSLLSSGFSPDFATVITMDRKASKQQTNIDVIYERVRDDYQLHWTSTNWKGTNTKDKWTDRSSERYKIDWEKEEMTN
S. aureus Alpha hemolysin, sequence (P09616 27-319 limits assumed): as above

The term EC50 denotes the concentration giving half of the maximal effect. Read a high EC50 as weaker potency. The IC50 is the midpoint of a concentration-inhibition curve. `CC(=O)c1ccccc1-c1ccc(NS(=O)(=O)c2cc3[nH]c(=O)c(=O)[nH]c3cc2C)cc1` [Compound 123, N-(2′-acetyl-[1,1′-biphenyl]-4-yl)-7-methyl-2,3-dioxo-1,2,3,4-tetrahydroquinoxaline-6-sulfonamide] came in with an EC50 in assay [1] of 1 to 6 µM. Moreover, the IC50 in assay [2] was 0.1 to 1 µM.

In assay [1], `COc1cc(NS(=O)(=O)c2cc3[nH]c(=O)c(=O)[nH]c3cc2C)ccc1-c1ccccc1C` [Compound 124, N-(2-methoxy-2′-methyl-[1,1′-biphenyl]-4-yl)-7-methyl-2,3-dioxo-1,2,3,4-tetrahydroquinoxaline-6-sulfonamide] gave an EC50 of 0.1 to 1 µM. In assay [2], this molecule showed an IC50 of 0.1 to 1 µM.

The molecule `Cc1ccccc1-c1c(C)cc(NS(=O)(=O)c2cc3[nH]c(=O)c(=O)[nH]c3cc2C)cc1C` [Compound 125, 7-methyl-2,3-dioxo-N-(2,2′,6-trimethyl-[1,1′-biphenyl]-4-yl)-1,2,3,4-tetrahydroquinoxaline-6-sulfonamide] had a 50% effective concentration (EC50) in assay [1] of 1 to 6 µM. In addition, in assay [2], the IC50 is 0.1 to 1 µM.

Take `Cc1cc2[nH]c(=O)c(=O)[nH]c2cc1S(=O)(=O)Nc1ccc(-c2ccccc2C(N)=O)cc1` [Compound 126, 4′-((7-methyl-2,3-dioxo-1,2,3,4-tetrahydroquinoxaline)-6-sulfonamido)-[1,1′-biphenyl]-2-carboxamide]: in assay [1], the EC50 was in the range of 0.1 to 1 µM. This molecule showed an IC50 in assay [2] of 1 to 3.5 µM.

Regarding `Cc1cc2[nH]c(=O)c(=O)[nH]c2cc1S(=O)(=O)Nc1ccc(-c2ccncc2)cc1` [Compound 127, 7-methyl-2,3-dioxo-N-(4-(pyridin-4-yl)phenyl)-1,2,3,4-tetrahydroquinoxaline-6-sulfonamide], the EC50 in assay [1] was 0.1 to 1 µM. The IC50 in assay [2] lay in the range of 0.1 to 1 µM.

As to `Cc1cc2[nH]c(=O)c(=O)[nH]c2cc1S(=O)(=O)Nc1ccc(N2CCOCC2)c(Br)c1` [Compound 128, N-(3-bromo-4-morpholinophenyl)-7-methyl-2,3-dioxo-1,2,3,4-tetrahydroquinoxaline-6-sulfonamide], in assay [1], the EC50 fell in the range of 0.1 to 1 µM. This molecule had an IC50 in assay [2] of 0.1 to 1 µM.

The molecule `C#Cc1ccc(NS(=O)(=O)c2cc3[nH]c(=O)c(=O)[nH]c3cc2C)cc1` [Compound 130, N-(4-ethynylphenyl)-7-methyl-2,3-dioxo-1,2,3,4-tetrahydroquinoxaline-6-sulfonamide] yielded an EC50 in assay [1] of 0.1 to 1 µM. In addition, the IC50 in assay [2] fell in the range of 0.1 to 1 µM.

Molecule `Cc1cc2[nH]c(=O)c(=O)[nH]c2cc1S(=O)(=O)Nc1cc(C)c(-c2sccc2C)c(C)c1` [Compound 132, N-(3,5-dimethyl-4-(3-methylthiophen-2-yl)phenyl)-7-methyl-2,3-dioxo-1,2,3,4-tetrahydroquinoxaline-6-sulfonamide] yielded an EC50 in assay [1] of 0.1 to 1 µM. For the same molecule, the IC50 in assay [2] is 0.1 to 1 µM.

Take `CCc1ccccc1-c1c(C)cc(NS(=O)(=O)c2cc3[nH]c(=O)c(=O)[nH]c3cc2C)cc1C` [Compound 134, N-(2′-ethyl-2,6-dimethyl-[1,1′-biphenyl]-4-yl)-7-methyl-2,3-dioxo-1,2,3,4-tetrahydroquinoxaline-6-sulfonamide]: in assay [1], the concentration for a half-maximal effect (EC50) lay within 0.03 to 0.1 µM. The molecule further returned an IC50 in assay [2] of 0.1 to 1 µM.

`Cc1cc2[nH]c(=O)c(=O)[nH]c2cc1S(=O)(=O)Nc1cc(C)c(-c2cc[nH]c2)c(C)c1` [Compound 135, N-(3,5-dimethyl-4-(1H-pyrrol-3-yl)phenyl)-7-methyl-2,3-dioxo-1,2,3,4-tetrahydroquinoxaline-6-sulfonamide] registered an EC50 in assay [1] of 0.1 to 1 µM. In assay [2], this molecule displayed an IC50 of 0.1 to 1 µM.

Consider `Cc1cc2[nH]c(=O)c(=O)[nH]c2cc1S(=O)(=O)Nc1ccc(-c2ccccc2N(C)C)c(Cl)c1` [Compound 136, N-(2-chloro-2′-(dimethylamino)-[1,1′-biphenyl]-4-yl)-7-methyl-2,3-dioxo-1,2,3,4-tetrahydroquinoxaline-6-sulfonamide], for which the EC50 in assay [1] lay in the range of 0.1 to 1 µM. The same molecule showed a half-inhibitory concentration (IC50) in assay [2] of 0.1 to 1 µM.

The molecule `Cc1cc2[nH]c(=O)c(=O)[nH]c2cc1S(=O)(=O)Nc1ccc(N2CCCC2)cc1` [Compound 137, 7-methyl-2,3-dioxo-N-(4-(pyrrolidin-1-yl)phenyl)-1,2,3,4-tetrahydroquinoxaline-6-sulfonamide] had an EC50 in assay [1] of 0.03 to 0.1 µM. In assay [2], this molecule displayed an IC50 of 0.1 to 1 µM.

In assay [1], `CCOC(=O)c1ccccc1-c1ccc(NS(=O)(=O)c2cc3[nH]c(=O)c(=O)[nH]c3cc2C)cc1Cl` [Compound 138, ethyl 2′-chloro-4′-((7-methyl-2,3-dioxo-1,2,3,4-tetrahydroquinoxaline)-6-sulfonamido)-[1,1′-biphenyl]-2-carboxylate] had a concentration for a half-maximal effect (EC50) of 1 to 6 µM. The molecule further returned a half-maximal inhibitory concentration (IC50) in assay [2] of 1 to 3.5 µM.

The molecule `Cc1cc2[nH]c(=O)c(=O)[nH]c2cc1S(=O)(=O)Nc1ccc(-c2ccccc2C(F)(F)F)c(Cl)c1` [Compound 139, N-(2-chloro-2′-(trifluoromethyl)-[1,1′-biphenyl]-4-yl)-7-methyl-2,3-dioxo-1,2,3,4-tetrahydroquinoxaline-6-sulfonamide] gave an EC50 in assay [1] of 1 to 6 µM. Moreover, the IC50 in assay [2] was in the range of 0.1 to 1 µM.

On to `Cc1cc(-c2ccc(NS(=O)(=O)c3cc4[nH]c(=O)c(=O)[nH]c4cc3C)cc2Cl)ccn1` [Compound 140, N-(3-chloro-4-(2-methylpyridin-4-yl)phenyl)-7-methyl-2,3-dioxo-1,2,3,4-tetrahydroquinoxaline-6-sulfonamide], for which the EC50 in assay [1] is 0.1 to 1 µM. In assay [2], this molecule displayed an IC50 of 0.1 to 1 µM.

In turn, `Cc1cc(NS(=O)(=O)c2cc3[nH]c(=O)c(=O)[nH]c3cc2Cl)ccc1Br` [Compound 141, N-(4-bromo-3-methylphenyl)-7-chloro-2,3-dioxo-1,2,3,4-tetrahydroquinoxaline-6-sulfonamide] had a concentration giving a half-maximal response (EC50) in assay [1] of 0.1 to 1 µM. The molecule further yielded a half-maximal inhibitory concentration (IC50) in assay [2] of 0.1 to 1 µM.

For the molecule `CC(C)c1ccc(NS(=O)(=O)c2cc3[nH]c(=O)c(=O)[nH]c3cc2Cl)cc1` [Compound 142, 7-chloro-N-(4-isopropylphenyl)-2,3-dioxo-1,2,3,4-tetrahydroquinoxaline-6-sulfonamide], the concentration for a half-maximal effect (EC50) in assay [1] was 0.1 to 1 µM. Further, the IC50 in assay [2] fell in the range of 0.1 to 1 µM.

As to `O=c1[nH]c2cc(Cl)c(S(=O)(=O)Nc3ccc(C(F)(F)F)c(Cl)c3)cc2[nH]c1=O` [Compound 143, 7-chloro-N-(3-chloro-4-(trifluoromethyl)phenyl)-2,3-dioxo-1,2,3,4-tetrahydroquinoxaline-6-sulfonamide], the EC50 in assay [1] was 1 to 6 µM. The IC50 in assay [2] lay within 0.1 to 1 µM.

Turning to `O=c1[nH]c2cc(Cl)c(S(=O)(=O)Nc3ccc(Br)c(Cl)c3)cc2[nH]c1=O` [Compound 144, N-(4-bromo-3-chlorophenyl)-7-chloro-2,3-dioxo-1,2,3,4-tetrahydroquinoxaline-6-sulfonamide], the EC50 in assay [1] was in the range of 1 to 6 µM. In assay [2], this molecule yielded a half-inhibitory concentration (IC50) of 0.1 to 1 µM.

The molecule `Cc1ccc(-c2ccc(NS(=O)(=O)c3cc4[nH]c(=O)c(=O)[nH]c4cc3Cl)cc2Cl)o1` [Compound 146, 7-chloro-N-(3-chloro-4-(5-methylfuran-2-yl)phenyl)-2,3-dioxo-1,2,3,4-tetrahydroquinoxaline-6-sulfonamide] gave an EC50 in assay [1] of 1 to 6 µM. The same molecule displayed an IC50 in assay [2] of 0.1 to 1 µM.

For `O=c1[nH]c2cc(F)c(S(=O)(=O)Nc3ccc(OC(F)(F)F)cc3)cc2[nH]c1=O` [Compound 147, 7-fluoro-2,3-dioxo-N-(4-(trifluoromethoxy)phenyl)-1,2,3,4-tetrahydroquinoxaline-6-sulfonamide], in assay [1], the half-maximal effective concentration (EC50) was 0.1 to 1 µM. The same molecule showed an IC50 in assay [2] of 0.1 to 1 µM.

`CCc1cc2[nH]c(=O)c(=O)[nH]c2cc1S(=O)(=O)Nc1ccc(Br)c(Cl)c1` [Compound 149, N-(4-bromo-3-chlorophenyl)-7-ethyl-2,3-dioxo-1,2,3,4-tetrahydroquinoxaline-6-sulfonamide]: the EC50 in assay [1] was 0.1 to 1 µM. Besides, in assay [2], the 50% inhibitory concentration (IC50) fell in the range of 0.1 to 1 µM.

On to `O=c1[nH]c2cc(F)c(S(=O)(=O)Nc3ccc(-c4ccncc4)c(Cl)c3)cc2[nH]c1=O` [Compound 150, N-(3-chloro-4-(pyridin-4-yl)phenyl)-7-fluoro-2,3-dioxo-1,2,3,4-tetrahydroquinoxaline-6-sulfonamide], for which the EC50 in assay [1] fell in the range of 0.1 to 1 µM. This molecule registered a half-inhibitory concentration (IC50) in assay [2] of 0.1 to 1 µM.

With `CC(C)c1cc2[nH]c(=O)c(=O)[nH]c2cc1S(=O)(=O)Nc1ccc(C(F)(F)F)cc1` [Compound 152, 7-isopropyl-2,3-dioxo-N-(4-(trifluoromethyl)phenyl)-1,2,3,4-tetrahydroquinoxaline-6-sulfonamide], the EC50 in assay [1] is 0.03 to 0.1 µM. The molecule further displayed an IC50 in assay [2] of 0.1 to 1 µM.

As to `Cc1cc(NS(=O)(=O)c2cc3[nH]c(=O)c(=O)[nH]c3cc2F)ccc1-c1ccoc1` [Compound 168, 7-fluoro-N-(4-(furan-3-yl)-3-methylphenyl)-2,3-dioxo-1,2,3,4-tetrahydroquinoxaline-6-sulfonamide], in assay [1], the EC50 lay in the range of 1 to 6 µM. The same molecule came in with an IC50 in assay [2] of 0.1 to 1 µM.

Turning to `O=c1[nH]c2cc(Cl)c(S(=O)(=O)Nc3ccc(C4CCCCC4)cc3)cc2[nH]c1=O` [Compound 170, 7-chloro-N-(4-cyclohexylphenyl)-2,3-dioxo-1,2,3,4-tetrahydroquinoxaline-6-sulfonamide], the EC50 in assay [1] was in the range of 0.1 to 1 µM. In assay [2], this molecule displayed an IC50 of 0.1 to 1 µM.

In the case of `Cc1cc(NS(=O)(=O)c2cc3[nH]c(=O)c(=O)[nH]c3cc2C)ccc1Br` [Compound 171, N-(4-bromo-3-methylphenyl)-7-methyl-2,3-dioxo-1,2,3,4-tetrahydroquinoxaline-6-sulfonamide], in assay [1], the EC50 lay in the range of 0.03 to 0.1 µM. In assay [2], this molecule had an IC50 of 0.1 to 1 µM.

Molecule `O=c1[nH]c2cc(Cl)c(S(=O)(=O)Nc3ccc4ccccc4c3)cc2[nH]c1=O` [Compound 172, 7-chloro-N-(naphthalen-2-yl)-2,3-dioxo-1,2,3,4-tetrahydroquinoxaline-6-sulfonamide] registered an EC50 in assay [1] of 0.1 to 1 µM. The IC50 in assay [2] was 0.1 to 1 µM.

`CC(C)(C)c1ccc(NS(=O)(=O)c2cc3[nH]c(=O)c(=O)[nH]c3cc2Cl)cc1` [Compound 173, N-(4-(tert-butyl)phenyl)-7-chloro-2,3-dioxo-1,2,3,4-tetrahydroquinoxaline-6-sulfonamide] yielded a half-maximal effective concentration (EC50) in assay [1] of 0.03 to 0.1 µM. The molecule further had an IC50 in assay [2] of 0.1 to 1 µM.

In the case of `O=c1[nH]c2cc(Cl)c(S(=O)(=O)Nc3ccc4c(c3)CCCC4)cc2[nH]c1=O` [Compound 174, 7-chloro-2,3-dioxo-N-(5,6,7,8-tetrahydronaphthalen-2-yl)-1,2,3,4-tetrahydroquinoxaline-6-sulfonamide], the 50% effective concentration (EC50) in assay [1] lay within 0.03 to 0.1 µM. In assay [2], this molecule returned a concentration for half-maximal inhibition (IC50) of 0.1 to 1 µM.
